Results taken from the supplement of paper PMC10307832.

Tests used:
Assay in all cases: relative viability (nuclei count vs DMSO), 5 days (fraction); higher = more cells survive
[1] = compound: C1CC2=C(C1)C=C(C=C2)OC3=NC(=C4C(=N3)N(C=N4)CC5=CC=C(C=C5)C6=CC=CC=C6)N[C@@H](CC7=CC=CC=C7)CO [QS11] + CC(=O)c1c(C)c2cnc(Nc3ccc(N4CCNCC4)cn3)nc2n(C2CCCC2)c1=O [Palbociclib] (partner 0.5 µM)
Procedure, shortened: (§1)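 Five library-drug doses in √10 steps were combined with a fixed anchor-drug dose, or a single drug was given alone, by pin tool to lung cancer cell lines in 1536-well plates the day after seeding. Nuclei were stained and counted after 5 days. Relative viability is the nuclei count in treated wells over that in vehicle wells, taken as the median of duplicate plates.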

[2] = compound: C1CC2=C(C1)C=C(C=C2)OC3=NC(=C4C(=N3)N(C=N4)CC5=CC=C(C=C5)C6=CC=CC=C6)N[C@@H](CC7=CC=CC=C7)CO [QS11] + O=C(c1cc(Cc2n[nH]c(=O)c3ccccc23)ccc1F)N1CCN(C(=O)C2CC2)CC1 [Olaparib] (partner 8 µM)
Procedure, shortened: as §1

[3] = compound: C[As](C)SC[C@H](NC(=O)CC[C@H](N)C(=O)O)C(=O)NCC(=O)O [Darinaparsin] + CC1(C)CCC(c2ccc(Cl)cc2)=C(CN2CCN(c3ccc(C(=O)NS(=O)(=O)c4ccc(N[C@H](CCN5CCOCC5)CSc5ccccc5)c(S(=O)(=O)C(F)(F)F)c4)cc3)CC2)C1 [Navitoclax] (partner 0.5 µM)
Procedure, shortened: as §1

[4] = compound: C[As](C)SC[C@H](NC(=O)CC[C@H](N)C(=O)O)C(=O)NCC(=O)O [Darinaparsin] + NC(=O)Nc1cc(-c2cccc(F)c2)sc1C(=O)N[C@H]1CCCNC1 [AZD7762] (partner 0.2 µM)
Procedure, shortened: as §1

Cell Line	relative viability ([1]; first compound 0.253 µM)	relative viability ([1]; first compound 0.8 µM)	relative viability ([1]; first compound 2.53 µM)	relative viability ([1]; first compound 8 µM)	relative viability ([2]; first compound 0.253 µM)	relative viability ([2]; first compound 0.8 µM)	relative viability ([2]; first compound 2.53 µM)	relative viability ([2]; first compound 8 µM)	relative viability ([3]; first compound 0.08 µM)	relative viability ([3]; first compound 0.8 µM)	relative viability ([3]; first compound 2.53 µM)	relative viability ([3]; first compound 8 µM)	relative viability ([4]; first compound 0.08 µM)	relative viability ([4]; first compound 0.8 µM)	relative viability ([4]; first compound 2.53 µM)	relative viability ([4]; first compound 8 µM)	relative viability ([1]; first compound 0.08 µM)	relative viability ([2]; first compound 0.08 µM)
ChaGo-K-1	0.955	1.02	1.02	1.07	0.448	0.352	0.397	0.387	1.19	0.905	1.05	0.956	0.979	0.931	0.789	1.03		
HARA	0.212	0.186	0.252	0.259		0.473	0.919	0.803	1.39	1.07	1.08	1.37	0.417		0.335	0.371	0.256	0.729
NCI-H1755	0.476	0.399	0.402	0.427	0.876	0.665	0.767	0.648	1.08	0.967	0.941	1.2	0.595	0.428	0.735	0.475	0.461	0.856
NCI-H460	0.093	0.0461	0.0817	0.0731	0.435	0.36	0.416	0.277		1.05	0.978	1.91	0.806	0.675	0.534	0.585	0.426	0.422
NCI-H2170	0.472	0.291	0.365	0.371	0.632	0.539	0.596	0.722	0.615	0.524	0.559	0.69	0.946	0.916	0.852	1.11	0.391	0.549
NCI-H3122	0.225		0.188	0.18	0.694		0.601	0.637	1.11	1.08	1.06	1.11	1.14	1	0.937	1.34	0.171	0.636
NCI-H2087	0.27	0.247	0.2	0.197	0.743	0.553	0.623	0.644	1.3	1.04	1.01	1.13	1.41	1.45	1.39	1.75	0.249	0.743
NCI-H1792	0.886	0.491	0.667	0.741	0.442	0.459	0.519	0.394	1.03	0.652	0.393	0.665	0.697	0.624		0.797	0.679	
HCC-366	0.454		0.162	0.0973	0.467		0.452	0.212	1.3	1.06	1.12	1.41	0.339		0.222	0.332	0.433	0.41
NCI-H2347	0.476	0.414	0.4	0.354	0.541	0.544	0.519	0.683	0.77	0.777	0.748	0.707	0.668	0.583	0.734	0.871	0.375	0.55
201T	0.406	0.345	0.395	0.277	1.05	0.699	0.898	0.718	1.21	1.15	1.19	1.12	0.707	0.669	0.527	0.658	0.369	0.876
NCI-H1993	0.544	0.59	0.708	0.641	1.01	1.22	1.35	1.05	0.801	0.836	1.04	1.16	0.965	0.723	0.628	0.84	0.646	1.06
EMC-BAC-2	0.545	0.43	0.443	0.406	0.492	0.464	0.492	0.44	1.24	1.14	1	1.72	1.18	1.04	1.28	1.26	0.515	0.461
RERF-LC-KJ	0.999	0.724	0.895	0.874	0.975	0.885	0.822	0.593	1.08	0.92	0.749	1.08	0.92	0.989	0.865	1.19	1.08	0.988
H3255	0.363	0.301	0.31	0.298	0.588	0.456	0.567	0.534	0.542	0.513	0.458	0.674	0.858	0.915	0.797	1.05	0.327	0.548
HCC-827	0.501	0.445	0.599	0.479	0.712	0.656	0.775	0.606	1.07	1.07	1.05	1.05	0.181	0.211	0.188	0.188	0.527	0.587
LXF-289	0.634	0.502	0.564	0.621	1.1	0.823	0.95	0.963	1	0.975	0.809	1.05	1.15	1.19	0.931	1.14	0.639	1.03
NCI-H727	0.73	0.698	0.637	0.699	0.661	0.654	0.589	0.753	0.405	0.447	0.472	0.393	0.556	0.599	0.598	0.581	0.694	0.653
